Data as given in ChEMBL document CHEMBL5042516, “Heterobivalent Ligand for the Adenosine A2A-Dopamine D2 Receptor Heteromer” (J Med Chem, 2022).
Activity calls are given as the source filed them. The calls are words filed in the database; no cut-off is given here.

Legend:
Ovis aries [1] = species: Ovis aries; assay: Displacement of [3H]- ZM 241 385 from A2A receptor from sheep brain striatum membrane assessed as first protomer region in the unoccupied dimer incubated for 2 hrs by radioligand based competition binding assay; assay type: cell membranes
Ovis aries [2] = species: Ovis aries; assay: Displacement of [3H]YM-09151-2 from dopamine D2 receptor from sheep brain striatum membrane assessed as first protomer region in unoccupied dimer incubated for 2 hrs by radioligand based competition binding assay; assay type: cell membranes
Ovis aries [3] = species: Ovis aries; assay: Displacement of [3H]- ZM 241 385 from A2A receptor from sheep brain striatum membrane assessed as first protomer region in the unoccupied dimer in presence of TM3-TAT peptide by radioligand based competition binding assay; assay type: cell membranes
Ovis aries [4] = species: Ovis aries; assay: Displacement of [3H]- ZM 241 385 from A2A receptor from sheep brain striatum membrane assessed as first protomer region in the unoccupied dimer in presence of TM5-TAT peptide by radioligand based competition binding assay; assay type: cell membranes
CHO [5] = assay: Antagonist activity at chinese hamster A2A receptor expressed in CHO cells assessed as CGS 21 680 induced response at 10 nM and measured for 30 mins by dynamic mass redistribution by DMR assay; assay type: cell-based; conditions: Cricetulus griseus, filed as antagonist
CHO [6] = assay: Antagonist activity at chinese hamster D2 receptor expressed in CHO cells assessed as su-manirole induced response at 0.1 nM and measured for 30 mins by dynamic mass redistribution by DMR assay relative to control; assay type: cell-based; conditions: Cricetulus griseus, filed as antagonist
HEK293T = assay: Stabilization of A2A/D2 receptor heterodimerization in human HEK-293T cells cotransfected with A2AR-Rluc and D2R-YFP at 100 nM assessed as increase in heteromer stabilization by measuring yellow fluorescent protein level by BRET assay relative to control; assay type: cell-based

Row | K (Ovis aries [2]) | Structure (SMILES) | Activity (CHO [5]) | Activity (CHO [6]) | Activity (HEK293T) | further results
1 | 0.13 nM | COC(=O)CN(CC(=O)NCCOCCOCCOCCOCCOCCNC(=O)CCC(=O)Nc1ccc(CCN2CN(c3ccccc3)C3(CCN(CCCC(=O)c4ccc(F)cc4)CC3)C2=O)cc1)CC(=O)NCCOCCOCCOCCOCCOCCNC(=O)COc1ccc(CCCn2ncc3c2nc(N)n2nc(-c4ccco4)nc32)cc1 | Antagonist | Antagonist | Active | K (Ovis aries [1]): 2.1 nM; K (Ovis aries [3]): 1.7 nM; K (Ovis aries [4]): 36 nM
2 | 0.5 nM | COC(=O)CN(CC(=O)NCCOCCOCCOCCOCCOCCNC(C)=O)CC(=O)NCCOCCOCCOCCOCCOCCNC(=O)CCC(=O)Nc1ccc(CCN2CN(c3ccccc3)C3(CCN(CCCC(=O)c4ccc(F)cc4)CC3)C2=O)cc1 | – | – | – | –
3 | – | O=C(O)CCC(=O)Nc1ccc(CCN2CN(c3ccccc3)C3(CCN(CCCC(=O)c4ccc(F)cc4)CC3)C2=O)cc1 | – | Active | – | –
4 | – | Nc1nc2c(cnn2CCCc2ccc(OCC(=O)O)cc2)c2nc(-c3ccco3)nn12 | Antagonist | – | – | –
5 | – | COC(=O)CN(CC(=O)NCCOCCOCCNC(=O)CCC(=O)Nc1ccc(CCN2CN(c3ccccc3)C3(CCN(CCCC(=O)c4ccc(F)cc4)CC3)C2=O)cc1)CC(=O)NCCOCCOCCNC(=O)COc1ccc(CCCn2ncc3c2nc(N)n2nc(-c4ccco4)nc32)cc1 | – | – | Active | –
6 | – | COC(=O)CN(CC(=O)NCCCOCCOCCOCCCNC(=O)CCC(=O)Nc1ccc(CCN2CN(c3ccccc3)C3(CCN(CCCC(=O)c4ccc(F)cc4)CC3)C2=O)cc1)CC(=O)NCCCOCCOCCOCCCNC(=O)COc1ccc(CCCn2ncc3c2nc(N)n2nc(-c4ccco4)nc32)cc1 | Antagonist | Antagonist | Active | –
